Data on 5 compounds can be found in US20170008928A1, “NOVEL PEPTIDES AND PEPTIDE DERIVATIVES AND USES THEREOF” (Novo Nordisk A/S, priority 2015, published 2017).

The target in assay [1] is T1, human cholecystokinin-2 receptor (CCK-2R) (Homo sapiens, UniProt P32239).
T1 construct: host or cells: 1321-N1 cells (plasma membranes prepared by Evotec AG Hamburg)
T1 sequence (P32239 1-447): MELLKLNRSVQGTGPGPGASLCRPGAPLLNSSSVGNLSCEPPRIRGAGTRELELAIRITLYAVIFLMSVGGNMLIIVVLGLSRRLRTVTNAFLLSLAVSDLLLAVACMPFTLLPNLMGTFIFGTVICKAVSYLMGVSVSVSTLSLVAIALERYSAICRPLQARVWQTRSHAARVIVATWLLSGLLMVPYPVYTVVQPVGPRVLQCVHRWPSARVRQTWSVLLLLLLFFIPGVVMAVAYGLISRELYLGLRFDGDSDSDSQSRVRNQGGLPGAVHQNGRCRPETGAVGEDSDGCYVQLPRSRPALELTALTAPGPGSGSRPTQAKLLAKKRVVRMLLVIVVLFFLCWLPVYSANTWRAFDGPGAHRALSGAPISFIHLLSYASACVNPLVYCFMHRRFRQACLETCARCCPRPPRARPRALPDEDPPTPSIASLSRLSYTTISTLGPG
As to the kind of experiment: In vitro potency on CCK-2R, whole cell functional assay (IP1 accumulation, IP-One HTRF). It counts as cell-based.

The target of assay [2] is T2, human cholecystokinin-1 receptor (CCK-1R) (Homo sapiens, UniProt P32238).
T2 construct: host or cells: 1321-N1 cells
T2 sequence (P32238 1-428): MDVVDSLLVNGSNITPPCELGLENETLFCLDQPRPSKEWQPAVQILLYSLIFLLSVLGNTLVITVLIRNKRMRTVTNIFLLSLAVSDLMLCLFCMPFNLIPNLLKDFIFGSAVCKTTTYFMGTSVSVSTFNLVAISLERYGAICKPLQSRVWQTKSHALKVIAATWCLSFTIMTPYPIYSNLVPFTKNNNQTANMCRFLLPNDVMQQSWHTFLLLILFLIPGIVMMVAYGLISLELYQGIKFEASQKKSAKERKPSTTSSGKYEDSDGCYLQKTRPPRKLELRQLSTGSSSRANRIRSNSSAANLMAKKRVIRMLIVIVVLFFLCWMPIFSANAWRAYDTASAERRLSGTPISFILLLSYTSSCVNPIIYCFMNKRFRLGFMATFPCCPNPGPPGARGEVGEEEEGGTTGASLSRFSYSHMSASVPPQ
Kind of assay: In vitro receptor binding to CCK-1R, SPA displacement of [125I]-CCK-8s from plasma membranes.

The target in assay [3] is T1, human cholecystokinin-2 receptor (CCK-2R). As to the kind of experiment: In vitro receptor binding to CCK-2R, SPA displacement of [125I]-CCK-8s from plasma membranes. For orientation: In a radioligand displacement assay an active substance lowers the binding of a labelled ligand.
Assay [4] concerns the target T2, human cholecystokinin-1 receptor (CCK-1R). As to the kind of experiment: In vitro potency on CCK-1R, whole cell functional assay (IP1 accumulation, IP-One HTRF). It is filed as cell-based.
Where [5] appears, read: 1321-N1 cells stably expressing CCK-2R, IP1 accumulation, highest dose tested 1×10^6 pM, read-out: EC50 (CCK-2R).
The mark [6] stands for this setting: displacement of [125I]-CCK-8s, plasma membranes of 1321-N1 cells expressing CCK-1R, read-out: IC50 (CCK-1R).
Where [7] appears, read: displacement of [125I]-CCK-8s, plasma membranes of 1321-N1 cells expressing CCK-2R, highest dose tested 1×10^7 pM, read-out: IC50 (CCK-2R).

pEC50, pIC50: −log10 of the molar value. Like-named read-outs stand apart in the source and are kept apart here. Starred links: 1 amine or outer side, 2 acyl side, 3 side chain; linkers in the order of their positions; H or OH if unused. Non-standard residues stand in square brackets, D forms with d. Residues, ends and D or L forms follow the SMILES beside them. *: point of attachment. Phe(4-CH2SO3H) = N[C@@H](Cc1ccc(CS(=O)(=O)O)cc1)C(=O)O; C20 diacid = O=C(O)CCCCCCCCCCCCCCCCCCC(=O)*; sY = N[C@@H](Cc1ccc(OS(=O)(=O)O)cc1)C(=O)O; C18 diacid = O=C(O)CCCCCCCCCCCCCCCCC(=O)*; γGlu = O=C(O)[C@H](CCC(=O)[*:2])N[*:1]; 1Nal = N[C@@H](Cc1cccc2ccccc12)C(=O)O; C14 diacid = O=C(O)CCCCCCCCCCCCC(=O)*; NMeF = CN[C@@H](Cc1ccccc1)C(=O)O; dNMeD = CN[C@H](CC(=O)O)C(=O)O; Nle = CCCC[C@H](N)C(=O)O; AEEA = NCCOCCOCC(=O)O A value given as a limit tells only on which side of the number the result lay.

For `CCCC[C@H](NC(=O)[C@H](Cc1ccc(OS(=O)(=O)O)cc1)NC(=O)[C@H](CC(=O)O)NC(=O)COCCOCCNC(=O)COCCOCCNC(=O)CC[C@H](NC(=O)CCCCCCCCCCCCCCCCC(=O)O)C(=O)O)C(=O)NCC(=O)N[C@@H](Cc1c[nH]c2ccccc12)C(=O)N[C@@H](CCCC)C(=O)N(C)[C@H](CC(=O)O)C(=O)N[C@@H](Cc1cccc2ccccc12)C(N)=O` [Example 2, 2-[2-[2-[[2-[2-[2-[[(4S)-4-Carboxy-4-(17-carboxyheptadecanoylamino)butanoyl]amino]ethoxy]ethoxy]acetyl]amino]ethoxy]ethoxy]acetyl-Asp-sTyr-Nle-Gly-Trp-Nle-DMeAsp-1Nal-amide] ({C18 diacid-γGlu-AEEA-AEEA}-D[sY][Nle]GW[Nle][dNMeD][1Nal]-NH2), the pEC50 (in general, −log10 of the EC50, conventionally taken in molar units) in assay [1] (setting [5]) was 6.74. The negative logarithm of the IC50 (pIC50) (usually the negative decadic logarithm of the IC50, by convention in mol/L) in assay [2] (setting [6]) is 9.89; in assay [3] (setting [7]) it was 6.00.
Regarding `CCCC[C@H](NC(=O)[C@H](Cc1ccc(CS(=O)(=O)O)cc1)NC(=O)[C@H](CC(=O)O)NC(=O)COCCOCCNC(=O)COCCOCCNC(=O)CC[C@H](NC(=O)CCCCCCCCCCCCCCCCC(=O)O)C(=O)O)C(=O)NCC(=O)N[C@@H](Cc1c[nH]c2ccccc12)C(=O)N[C@@H](CCCC)C(=O)N(C)[C@H](CC(=O)O)C(=O)N(C)[C@@H](Cc1ccccc1)C(N)=O` [Example 3, 2-[2-[2-[[2-[2-[2-[[(4S)-4-Carboxy-4-(17-carboxyheptadecanoylamino)butanoyl]amino]ethoxy]ethoxy]acetyl]amino]ethoxy]ethoxy]acetyl-Asp-Phe(4-sulfomethyl)-Nle-Gly-Trp-Nle-DMeAsp-MePhe-amide] ({C18 diacid-γGlu-AEEA-AEEA}-D[Phe(4-CH2SO3H)][Nle]GW[Nle][dNMeD][NMeF]-NH2), the values for the pEC50 in assay [4] and in assay [1] were 9.51 and less than 6.00, respectively. Further, the results for the negative-log IC50 (pIC50) in assay [2] and in assay [3] were 9.59 and less than 5.00, respectively.
In the case of `CCCC[C@H](NC(=O)[C@H](Cc1c[nH]c2ccccc12)NC(=O)CNC(=O)[C@H](CC(C)C)NC(=O)[C@H](Cc1ccc(OS(=O)(=O)O)cc1)NC(=O)[C@H](CC(=O)O)NC(=O)[C@H](CO)NC(=O)[C@H](CO)NC(=O)CNC(=O)[C@H](CO)NC(=O)[C@H](CO)NC(=O)CNC(=O)CCCCCCCCCCCCCCCCC(=O)O)C(=O)N(C)[C@H](CC(=O)O)C(=O)N(C)[C@@H](Cc1ccccc1)C(N)=O` [Example 29, 17-Carboxyheptadecanoyl-Gly-Ser-Ser-Gly-Ser-Ser-Asp-sTyr-Leu-Gly-Trp-Nle-DMeAsp-MePhe-amide] ({C18 diacid}-GSSGSSD[sY]LGW[Nle][dNMeD][NMeF]-NH2), the “CCK-1R selectivity (EC50 (CCK-2R)/EC50 (CCK-1R))” value in assay [4] (ratio of functional EC50 values, >1 = preference for CCK-1R) is reported as 28. Also, in assay [2] (setting [6]), the negative logarithm of the IC50 (pIC50) is 10.14. Further, the “CCK-1R binding selectivity (IC50 (CCK-2R)/IC50 (CCK-1R))” value in assay [2] (ratio of binding IC50 values, >1 = preference for CCK-1R) was 5100.
For the compound `CCCC[C@H](NC(=O)[C@H](Cc1c[nH]c2ccccc12)NC(=O)CNC(=O)[C@H](CC(C)C)NC(=O)[C@H](Cc1ccc(CS(=O)(=O)O)cc1)NC(=O)[C@H](CC(=O)O)NC(=O)COCCOCCNC(=O)COCCOCCNC(=O)CC[C@H](NC(=O)CCCCCCCCCCCCC(=O)O)C(=O)O)C(=O)N(C)[C@H](CC(=O)O)C(=O)N(C)[C@@H](Cc1ccccc1)C(N)=O` [Example 34, 2-[2-[2-[[2-[2-[2-[[(4S)-4-Carboxy-4-(13-carboxytridecanoylamino)butanoyl]amino]ethoxy]ethoxy]acetyl]amino]ethoxy]ethoxy]acetyl-Asp-Phe(4-sulfomethyl)-Leu-Gly-Trp-Nle-DMeAsp-MePhe-amide] ({C14 diacid-γGlu-AEEA-AEEA}-D[Phe(4-CH2SO3H)]LGW[Nle][dNMeD][NMeF]-NH2), the pEC50 in assay [4] (1321-N1 cells stably expressing CCK-1R, IP1 accumulation, average of min. three replicates, read-out: EC50 (CCK-1R)) was 9.68; in assay [1] (setting [5]), less than 6.00. Also, the pIC50 in assay [3] (setting [7]) is less than 5.00.
Regarding `CCCC[C@H](NC(=O)[C@H](Cc1c[nH]c2ccccc12)NC(=O)CNC(=O)[C@H](CC(C)C)NC(=O)[C@H](Cc1ccc(CS(=O)(=O)O)cc1)NC(=O)[C@H](CC(=O)O)NC(=O)COCCOCCNC(=O)COCCOCCNC(=O)CC[C@H](NC(=O)CCCCCCCCCCCCCCCCCCC(=O)O)C(=O)O)C(=O)N(C)[C@H](CC(=O)O)C(=O)N(C)[C@@H](Cc1ccccc1)C(N)=O` [Example 35, 2-[2-[2-[[2-[2-[2-[[(4S)-4-Carboxy-4-(19-carboxynonadecanoylamino)butanoyl]amino]ethoxy]ethoxy]acetyl]amino]ethoxy]ethoxy]acetyl-Asp-Phe(4-sulfomethyl)-Leu-Gly-Trp-Nle-DMeAsp-MePhe-amide] ({C20 diacid-γGlu-AEEA-AEEA}-D[Phe(4-CH2SO3H)]LGW[Nle][dNMeD][NMeF]-NH2), the pEC50 in assay [1] (setting [5]) was less than 6.00. In addition, in assay [3] (setting [7]), the negative-log IC50 (pIC50) was less than 5.00.
